Measured values from patent EP2604265A1, “P2x7 antagonists as frontline or adjunctive treatment against status epilepticus” (Royal College of Surgeons in Ireland (RCSI), priority 2011, dated 2013).

System: glutamate receptors
Experiment: Fura-2 calcium microfluorimetry, glutamate-evoked calcium entry
Type: cell-based, mouse
Conditions: cultured hippocampal neurons; glutamate 100 µM; BBG 1 µM
Protocol: Hippocampal neurons were prepared as described previously (Diaz-Hernandez et al., 2008). Briefly, hippocampi were obtained from E17 mouse embryos and, after dissection and washing three times in Ca^2+/Mg^2+-free HBSS, tissue was digested in the same solution with 0.25% trypsin for 15 min at 37°C. Hippocampi were then washed three times in Ca^2+/Mg^2+-free HBSS and dissociated with a firepolished Pasteur pipette. Cells were counted, resuspended in plating medium (MEM, 10% fetal bovine serum, 0.6% glucose) and plated at a density of 5,000 cells/cm^2 on poly-L-lysine coated coverslips (1 mg/ml). After plating, neurons were cultured for 24-72 h in neuronal culture medium (Neurobasal, B-27, glutamax-I). For biochemical experiments, hippocampal neurons were plated on polylysine-coated (1 mg/ml) 60-mm plates at a density of 200,000 cells/cm^2, and cultured for 72 h in neuronal culture medium. AraC was added at a final concentration of 5 µM after 2 days in culture.
Calcium microfluorimetric analysis in single neurons was carried out according to (Diaz-Hernandez et al., 2001). […]
Neurons were visualized using a Plan Fluor x40 S/0.5-1.3 oil lens. […] The background was subtracted at each wavelength and the 340 / 380 ratio was calculated. The data are represented as the normalized F340/F380 fluorescence ratio, which increases as [Ca^2+]i increases.

## CCOc1ccc(Nc2ccc(C(=C3C=CC(=[N+](CC)Cc4cccc(S(=O)(=O)[O-])c4)C=C3C)c3ccc(N(CC)Cc4cccc(S(=O)(=O)O)c4)cc3C)cc2)cc1 [BBG, Brilliant Blue G]
  glutamate-induced calcium entry: failed to alter
